Experimental findings from ChEMBL document CHEMBL1201862, “PubChem BioAssay data set” (2004) are described below.

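Test compounds were applied to cells in 96-well plates for 48 hours at 5 doses. Abbreviation: GI50, concentration required for 50% inhibition of growth.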 Activity calls are given as the source filed them. No stated cut-off is given here; in the data, active = GI50 up to about 1.1 µM and inactive = higher.

Among the test systems are K562; CAKI-1; UACC-62; SK-MEL-5; SW-620; SN12C; M19-MEL; SF-268; NCI-H23; M14; TK-10; NCI-H226; SF-539; OVCAR-4; DLD-1; SK-MEL-2; SF-295; RPMI-8226; MCF7.
Assay in all cases: inhibition of tumour cell growth, NCI panel, 48 h

In the case of `O=C1CCCCCCCCCCOC(=O)CCCCCCCCCCO1`, the GI50 with K562, in the experiment on CAKI-1, with UACC-62, with SK-MEL-5, in the experiment with SW-620 and in the experiment on SN12C was > 100 µM (inactive) in each case. Moreover, the GI50 in the experiment on M19-MEL, with SF-268, in the experiment on NCI-H23, in the experiment on M14, in the experiment on TK-10 and in the experiment on NCI-H226 was > 100 µM (inactive) throughout. Moreover, the GI50 with SF-539, with OVCAR-4, with DLD-1, with SK-MEL-2 and in the experiment on SF-295 was > 100 µM (inactive) in each case.

Take `CC(=O)O[C@H]1CC[C@@]2(C)[C@H](CC[C@@H]3[C@@H]2CC[C@]2(C)[C@@H](c4ccc(=O)oc4)C[C@H]4O[C@]342)C1`: the GI50 was 0.646 µM (active) with K562; 0.397 µM (active) in the experiment with CAKI-1; 1.05 µM (active) in the experiment with UACC-62; 0.664 µM (active) with RPMI-8226; 0.34 µM (active) in the experiment on SK-MEL-5; 0.665 µM (active) with SW-620. Besides, the GI50 with SN12C was 0.327 µM (active); in the experiment on M19-MEL, 1.05 µM (active); in the experiment with SF-268, 0.348 µM (active); with NCI-H23 it was 0.327 µM (active); in the experiment on MCF7, 1.27 µM (inactive); with NCI-H226, 2.28 µM (inactive). In addition, the GI50 in the experiment on SF-539 is 0.348 µM (active); in the experiment on OVCAR-4, 0.675 µM (active); with DLD-1, 0.354 µM (active); with SK-MEL-2, 2.7 µM (inactive); in the experiment on SF-295, 0.515 µM (active).

On to `CC(=O)NC1=C(C)C(=O)c2c(nc3n2CCC3OC(=O)c2ccccc2)C1=O` (stereo unspecified), for which the GI50 in the experiment with K562 was 2.32 µM (inactive); with CAKI-1 it was 2.6 µM (inactive); in the experiment on UACC-62, 1.92 µM (inactive); with RPMI-8226 it was 2.04 µM (inactive); with SK-MEL-5, 1.75 µM (inactive); with SW-620 it was 1.79 µM (inactive). Moreover, the GI50 with SN12C was 1.79 µM (inactive); with M19-MEL it was 1.69 µM (inactive); in the experiment with SF-268, 2.21 µM (inactive); in the experiment on NCI-H23, 1.67 µM (inactive); in the experiment with M14, 1.98 µM (inactive); in the experiment on TK-10, 6.43 µM (inactive). The GI50 with NCI-H226 was 2.05 µM (inactive); with SF-539, 1.93 µM (inactive); with OVCAR-4 it was 1.52 µM (inactive); in the experiment with DLD-1, 1.81 µM (inactive); in the experiment on SK-MEL-2 it was 1.7 µM (inactive); with SF-295 it was 1.51 µM (inactive).

Take `Nc1ccc2c(c1)C1=NNC(=O)CC1C2` (stereo unspecified): the GI50 in the experiment on K562 is > 100 µM (inactive); in the experiment on CAKI-1 it was > 100 µM (inactive); in the experiment with UACC-62 it was > 100 µM (inactive); in the experiment on RPMI-8226 it was > 40.4 µM (inactive); in the experiment on SK-MEL-5, > 100 µM (inactive); with SW-620, > 100 µM (inactive). The GI50 with SN12C is > 100 µM (inactive); with M19-MEL, > 100 µM (inactive); with SF-268 it was > 100 µM (inactive); with NCI-H23, > 100 µM (inactive); in the experiment with MCF7, > 31.6 µM (inactive); in the experiment with NCI-H226, > 100 µM (inactive). Moreover, the GI50 in the experiment with SF-539 was > 100 µM (inactive); in the experiment on OVCAR-4, 47.8 µM (inactive); in the experiment on DLD-1, > 100 µM (inactive); in the experiment on SK-MEL-2, > 100 µM (inactive); in the experiment on SF-295 it was > 100 µM (inactive).

For the compound `O=C(c1ccccc1)c1cc(Cl)ccc1NCn1nnc2ccccc21`, the GI50 with K562 was 34.6 µM (inactive); with UACC-62, > 100 µM (inactive); with RPMI-8226, 41.6 µM (inactive); with SW-620 it was 48.2 µM (inactive); in the experiment with SN12C, 76.4 µM (inactive); with M19-MEL, 81.7 µM (inactive). Moreover, the GI50 with NCI-H23 is > 100 µM (inactive); in the experiment with M14 it was 88.7 µM (inactive); with TK-10 it was 81.1 µM (inactive); with NCI-H226, > 100 µM (inactive); in the experiment on SF-539 it was 37.8 µM (inactive); with OVCAR-4, 9.46 µM (inactive). Besides, the GI50 with DLD-1 was > 100 µM (inactive); in the experiment on SK-MEL-2, 29 µM (inactive); with SF-295 it was 85.3 µM (inactive).

Consider `O=S(O)CCCSSSCCCS(=O)O`, for which the GI50 in the experiment on K562, in the experiment with UACC-62, in the experiment with SN12C, in the experiment with M19-MEL, in the experiment on SF-268 and in the experiment with NCI-H23 was > 100 µM (inactive) in each case. In addition, the GI50 in the experiment with M14, with TK-10, with SF-539, in the experiment with OVCAR-4, in the experiment on DLD-1 and in the experiment with SK-MEL-2 was > 100 µM (inactive) in each case.

Take `Cc1nc(N(CCO)CCO)c2sc(=S)n(-c3ccccc3)c2n1`: the GI50 in the experiment with K562, in the experiment on UACC-62, in the experiment with RPMI-8226, in the experiment with SK-MEL-5, with SW-620 and with SF-268 was > 100 µM (inactive) throughout. For the same compound, the GI50 with NCI-H23, with TK-10, in the experiment with NCI-H226, in the experiment with SF-539, in the experiment on DLD-1 and in the experiment with SK-MEL-2 was > 100 µM (inactive) each time. Further, the GI50 in the experiment on SF-295 is > 100 µM (inactive).

As for `O=C1C2c3[nH]c4ccccc4c3C3CCSCC3C2C(=O)N1c1ccccc1` (stereo unspecified), the GI50 with K562 was 72.9 µM (inactive); in the experiment with CAKI-1, > 100 µM (inactive); in the experiment with UACC-62, > 100 µM (inactive); in the experiment with RPMI-8226, > 100 µM (inactive); in the experiment on SK-MEL-5 it was > 100 µM (inactive); with SW-620, > 100 µM (inactive). Also, the GI50 in the experiment with SN12C, in the experiment with M19-MEL, with SF-268, in the experiment with NCI-H23, in the experiment with M14 and in the experiment on TK-10 was > 100 µM (inactive) each time. In addition, the GI50 with NCI-H226 is > 100 µM (inactive); with SF-539 it was 59.2 µM (inactive); in the experiment with OVCAR-4 it was > 100 µM (inactive); in the experiment with DLD-1, > 100 µM (inactive); with SK-MEL-2, > 100 µM (inactive); in the experiment on SF-295 it was > 100 µM (inactive).

Regarding `C=C1CC(OC)(C(OC)C(=O)N[C@H]2OCO[C@H]3C2O[C@H](C[C@@H](COC)OC)C(C)(C)C3OC)O[C@H](C)[C@@H]1C` (stereo partly specified), the GI50 in the experiment with K562 was 0.815 µM (active); in the experiment with CAKI-1, 0.916 µM (active); in the experiment with UACC-62, 1.01 µM (active); in the experiment with RPMI-8226 it was 0.111 µM (active); in the experiment with SK-MEL-5 it was 0.622 µM (active); in the experiment on SW-620, 0.859 µM (active). The GI50 in the experiment with SN12C was 0.746 µM (active); in the experiment on M19-MEL, 0.778 µM (active); in the experiment on NCI-H23, 1.18 µM (inactive); in the experiment with MCF7, 1.4 µM (inactive); with NCI-H226, 1.16 µM (inactive); in the experiment with SF-539, 0.76 µM (active). Also, the GI50 with OVCAR-4 was 0.733 µM (active); with DLD-1, 0.805 µM (active); with SK-MEL-2, 1.15 µM (inactive); in the experiment with SF-295, 0.851 µM (active).

On to `C=C(/C=C/C=C(/CCC=C(C)C)COC(C)=O)[C@@H]1CC[C@]2([C@H](CCCO)/C(=C(/C)C=O)CC[C@]2(C)O)[C@@H]1O`, for which the GI50 in the experiment with K562 is 2.92 µM (inactive); with CAKI-1, 3.05 µM (inactive); in the experiment with SW-620, 2.42 µM (inactive); in the experiment on SN12C, 15.8 µM (inactive); in the experiment on M19-MEL, 15.7 µM (inactive); in the experiment on SF-268, 15.7 µM (inactive). Moreover, the GI50 with NCI-H23 was 18.8 µM (inactive); with M14, 11 µM (inactive); in the experiment on TK-10, 14.2 µM (inactive); with NCI-H226 it was 4.61 µM (inactive); with SF-539, 14 µM (inactive); in the experiment with DLD-1, 11.9 µM (inactive). For the same compound, the GI50 was 17.9 µM (inactive) with SK-MEL-2 and 0.973 µM (active) in the experiment with SF-295.

Consider `CC12CCC3C(CCC4CC(OC(=O)Cc5ccc(N(CCCl)CCCl)cc5)CCC43C)C1CCC(=O)N2` (stereo unspecified), for which the GI50 was 16.9 µM (inactive) with K562; 15.9 µM (inactive) in the experiment with CAKI-1; 15.2 µM (inactive) in the experiment with RPMI-8226; 18.2 µM (inactive) in the experiment with SK-MEL-5; 14 µM (inactive) with SW-620; 15.6 µM (inactive) with SN12C. The GI50 in the experiment on M19-MEL is 17.2 µM (inactive); with SF-268, 17.1 µM (inactive); with NCI-H23, 13 µM (inactive); in the experiment on M14, 17.7 µM (inactive); with TK-10, 20.6 µM (inactive); with NCI-H226 it was 15.7 µM (inactive). Also, the GI50 in the experiment on SF-539 is 15.1 µM (inactive); in the experiment on OVCAR-4 it was 15.9 µM (inactive); in the experiment on DLD-1, 18.7 µM (inactive); in the experiment on SK-MEL-2, 15.5 µM (inactive); with SF-295 it was 16.3 µM (inactive).

`Cc1nc2c(nc1Cl)nc(Oc1ccc(Cl)cc1)c1ccccc12`: the GI50 is > 100 µM (inactive) with K562; > 100 µM (inactive) in the experiment on CAKI-1; 48.2 µM (inactive) with UACC-62; > 100 µM (inactive) in the experiment on RPMI-8226; 57.5 µM (inactive) with SK-MEL-5; 50.4 µM (inactive) with SW-620. Also, the GI50 in the experiment with SN12C was 43.6 µM (inactive); in the experiment with M19-MEL, > 100 µM (inactive); in the experiment with SF-268, 56.8 µM (inactive); in the experiment with NCI-H23, 45.8 µM (inactive); in the experiment on M14, 85.7 µM (inactive); in the experiment with NCI-H226, 27.9 µM (inactive). Besides, the GI50 is 90.8 µM (inactive) in the experiment with SF-539; 32 µM (inactive) with OVCAR-4; 49.9 µM (inactive) in the experiment with DLD-1; > 100 µM (inactive) in the experiment with SK-MEL-2; 37.2 µM (inactive) in the experiment on SF-295.
